Source: PMC9252588 (Drug Design, Development and Therapy, 2022)

Key:
[1] = tested on: rat liver microsomes (RLMs); assay: Enzymatic kinetics of axitinib inhibition of buspirone metabolism in RLMs; format: in vitro ADME
[2] = in vivo; cited from earlier work
[3] = tested on: buspirone 6′-hydroxylation (formation of 6′-OH buspirone); assay: in vitro; details: rat, rat liver microsomes
[4] = tested on: buspirone N-dealkylation (formation of 1-PP); assay: in vitro; details: rat, rat liver microsomes
[5] = Pharmacokinetics of buspirone and metabolites with or without axitinib in rats; format: in vivo, Sprague–Dawley rats; details: increased to % of group A
[6] = Pharmacokinetic pre-experiment: ritonavir before buspirone in rats; format: in vivo; details: ritonavir (positive inhibitor) administered before buspirone

Structure (SMILES): CNC(=O)c1ccccc1Sc1ccc2c(/C=C/c3ccccn3)n[nH]c2c1 [axitinib]
- α value ([1]; buspirone 6′-hydroxylation): 2.139
- α value ([1]; buspirone N-dealkylation): 5.434

Structure (SMILES): O=C1CC2(CCCC2)CC(=O)N1CCCCN1CCN(c2ncccn2)CC1 [buspirone, 8-(4-(4-(2-pyrimidinyl)-1-piperizinyl)butyl)-8-azaspiro(4,5)decane-7,9-dione]
- absorbed in the alimentary canal [2]: ~100%
- Km at 40 min [3]: 23 µM
- Km at 40 min [4]: 26.3 µM
- AUC(0-t), group B compared with group A [5]: 530%
- Cmax, group B compared with group A [5]: 420%
- Tmax, group B compared with group A [5]: 150%

Structure (SMILES): CC(C)c1nc(CN(C)C(=O)N[C@H](C(=O)N[C@@H](Cc2ccccc2)C[C@H](O)[C@H](Cc2ccccc2)NC(=O)OCc2cncs2)C(C)C)cs1 [ritonavir]
- blood concentrations of buspirone [6]: extremely high blood concentrations of buspirone
- symptoms compared with the control [6]: symptoms of inhibition of respiration and near-death
